Data reported in ChEMBL document CHEMBL3885861, “Open TG-GATES”.

Species: Rattus norvegicus
Assay: Open TG-GATES - Regimen: Daily Repeat
Type: toxicity, organism-based, Sprague-Dawley
Parameters: regimen Daily Repeat, gender Male, age 6 weeks
Conditions: in vivo, po, 0 mg/kg, route gavage, dose level Control; for APTT / Bas / Eos / Fbg / Hb / Ht / Lym / MCH / MCHC / MCV / Mono / Neu / PT / Plat / RBC / Ret / WBC: tissue Blood; for KIDNEY_L / KIDNEY_R / KIDNEY_TOTAL: tissue Kidney; for LIVER: tissue Liver; for A/G / ALP / ALT / AST / BUN / CRE / Ca / Cl / DBIL / GLC / IP / K / LDH / Na / PL / RALB / TBIL / TC / TG / TP / gamma-GTP: tissue Plasma

SMILES: O=NN(CCCl)C(=O)NC1CCCCC1 [LOMUSTINE]
- TERMINAL_BW (72 h, time 3 day): 220.6 g
- APTT (72 h, time 3 day): 17.7 s
- Bas (72 h, time 3 day): 0%
- Eos (72 h, time 3 day): 0.6%
- Fbg (72 h, time 3 day): 234 mg/dL
- Hb (72 h, time 3 day): 13.5 g/dL
- Ht (72 h, time 3 day): 40.6%
- Lym (72 h, time 3 day): 76.8%
- MCH (72 h, time 3 day): 21.8 pg
- MCHC (72 h, time 3 day): 33.3%
- MCV (72 h, time 3 day): 65.5 fL
- Mono (72 h, time 3 day): 6.4%
- Neu (72 h, time 3 day): 16.2%
- PT (72 h, time 3 day): 11.8 s
- Plat (72 h, time 3 day): 108.6 x10_4/uL
- RBC (72 h, time 3 day): 619.4 x10_4/ul
- Ret (72 h, time 3 day): 7.2%
- WBC (72 h, time 3 day): 131.9 x10_2/uL
- KIDNEY_L (72 h, time 3 day): 1 g
- KIDNEY_R (72 h, time 3 day): 1 g
- KIDNEY_TOTAL (72 h, time 3 day): 2 g
- LIVER (72 h, time 3 day): 10.5 g
- A/G (72 h, time 3 day): 2
- ALP (72 h, time 3 day): 1042.6 IU/L
- ALT (72 h, time 3 day): 33.6 IU/L
- AST (72 h, time 3 day): 69.4 IU/L
- BUN (72 h, time 3 day): 18 mg/dL
- CRE (72 h, time 3 day): 0.5 mg/dL
- Ca (72 h, time 3 day): 11 mg/dL
- Cl (72 h, time 3 day): 104.4 meq/L
- DBIL (72 h, time 3 day): 0.006 mg/dL
- GLC (72 h, time 3 day): 186.2 mg/dL
- IP (72 h, time 3 day): 8.5 mg/dL
- K (72 h, time 3 day): 5.1 meq/L
- LDH (72 h, time 3 day): 99.8 IU/L
- Na (72 h, time 3 day): 140 meq/L
- PL (72 h, time 3 day): 147.6 mg/dL
- RALB (72 h, time 3 day): 3.9 g/dL
- TBIL (72 h, time 3 day): 0.4 mg/dL
- TC (72 h, time 3 day): 74.8 mg/dL
- TG (72 h, time 3 day): 114.6 mg/dL
- TP (72 h, time 3 day): 5.9 g/dL
- gamma-GTP (72 h, time 3 day): 2 IU/L
- TERMINAL_BW ([…], time 7 day): 258.9 g
- TERMINAL_BW ([…], time 14 day): 305.2 g
- TERMINAL_BW ([…], time 28 day): 379.6 g
- APTT ([…], time 7 day): 17.7 s
- Bas ([…], time 7 day): 0%
- Eos ([…], time 7 day): 1%
- Fbg ([…], time 7 day): 241.8 mg/dL
- Hb ([…], time 7 day): 13.4 g/dL
- Ht ([…], time 7 day): 40.2%
- Lym ([…], time 7 day): 79.6%
- MCH ([…], time 7 day): 21.8 pg
- MCHC ([…], time 7 day): 33.4%
- MCV ([…], time 7 day): 65.2 fL
- Mono ([…], time 7 day): 6%
- Neu ([…], time 7 day): 14.2%
- PT ([…], time 7 day): 11.4 s
- Plat ([…], time 7 day): 107.5 x10_4/uL
- RBC ([…], time 7 day): 617.4 x10_4/ul
- Ret ([…], time 7 day): 7.2%
- WBC ([…], time 7 day): 161 x10_2/uL
- APTT ([…], time 14 day): 16.7 s
- Bas ([…], time 14 day): 0%
- Eos ([…], time 14 day): 0.4%
- Fbg ([…], time 14 day): 224.4 mg/dL
- Hb ([…], time 14 day): 14.1 g/dL
- Ht ([…], time 14 day): 42%
- Lym ([…], time 14 day): 80.8%
- MCH ([…], time 14 day): 20.3 pg
- MCHC ([…], time 14 day): 33.5%
- MCV ([…], time 14 day): 60.7 fL
- Mono ([…], time 14 day): 6.8%
- Neu ([…], time 14 day): 11.8%
- PT ([…], time 14 day): 11.4 s
- Plat ([…], time 14 day): 119.2 x10_4/uL
- RBC ([…], time 14 day): 693.2 x10_4/ul
- Ret ([…], time 14 day): 4.9%
- WBC ([…], time 14 day): 145.5 x10_2/uL
- APTT ([…], time 28 day): 17.5 s
- Bas ([…], time 28 day): 0%
- Eos ([…], time 28 day): 1%
- Fbg ([…], time 28 day): 250.6 mg/dL
- Hb ([…], time 28 day): 15 g/dL
- Ht ([…], time 28 day): 44.9%
- Lym ([…], time 28 day): 82.8%
- MCH ([…], time 28 day): 19.2 pg
- MCHC ([…], time 28 day): 33.5%
- MCV ([…], time 28 day): 57.3 fL
- Mono ([…], time 28 day): 5.4%
- Neu ([…], time 28 day): 10.8%
- PT ([…], time 28 day): 11.9 s
- Plat ([…], time 28 day): 107.1 x10_4/uL
- RBC ([…], time 28 day): 783 x10_4/ul
- Ret ([…], time 28 day): 2.5%
- WBC ([…], time 28 day): 166.4 x10_2/uL
- KIDNEY_L ([…], time 7 day): 1.2 g
- KIDNEY_R ([…], time 7 day): 1.1 g
- KIDNEY_TOTAL ([…], time 7 day): 2.3 g
- KIDNEY_L ([…], time 14 day): 1.1 g
- KIDNEY_R ([…], time 14 day): 1.2 g
- KIDNEY_TOTAL ([…], time 14 day): 2.3 g
- KIDNEY_L ([…], time 28 day): 1.4 g
- KIDNEY_R ([…], time 28 day): 1.4 g
- KIDNEY_TOTAL ([…], time 28 day): 2.7 g
- LIVER ([…], time 7 day): 12.8 g
- LIVER ([…], time 14 day): 14.1 g
- LIVER ([…], time 28 day): 15.1 g
- A/G ([…], time 7 day): 1.8
- ALP ([…], time 7 day): 746 IU/L
- ALT ([…], time 7 day): 36.6 IU/L
- AST ([…], time 7 day): 59 IU/L
- BUN ([…], time 7 day): 19.2 mg/dL
- CRE ([…], time 7 day): 0.5 mg/dL
- Ca ([…], time 7 day): 10.9 mg/dL
- Cl ([…], time 7 day): 105.2 meq/L
- DBIL ([…], time 7 day): 0.012 mg/dL
- GLC ([…], time 7 day): 186 mg/dL
- IP ([…], time 7 day): 7.5 mg/dL
- K ([…], time 7 day): 4.9 meq/L
- LDH ([…], time 7 day): 85 IU/L
- Na ([…], time 7 day): 140.4 meq/L
- PL ([…], time 7 day): 168.2 mg/dL
- RALB ([…], time 7 day): 3.9 g/dL
- TBIL ([…], time 7 day): 0.3 mg/dL
- TC ([…], time 7 day): 90 mg/dL
- TG ([…], time 7 day): 113.2 mg/dL
- TP ([…], time 7 day): 6.1 g/dL
- gamma-GTP ([…], time 7 day): 1 IU/L
- A/G ([…], time 14 day): 2
- ALP ([…], time 14 day): 859 IU/L
- ALT ([…], time 14 day): 34 IU/L
- AST ([…], time 14 day): 63.4 IU/L
- BUN ([…], time 14 day): 20.2 mg/dL
- CRE ([…], time 14 day): 0.5 mg/dL
- Ca ([…], time 14 day): 11.3 mg/dL
- Cl ([…], time 14 day): 106.8 meq/L
- DBIL ([…], time 14 day): 0.014 mg/dL
- GLC ([…], time 14 day): 183 mg/dL
- IP ([…], time 14 day): 7.4 mg/dL
- K ([…], time 14 day): 4.7 meq/L
- LDH ([…], time 14 day): 85.6 IU/L
- Na ([…], time 14 day): 140.2 meq/L
- PL ([…], time 14 day): 167.6 mg/dL
- RALB ([…], time 14 day): 4 g/dL
- TBIL ([…], time 14 day): 0.3 mg/dL
- TC ([…], time 14 day): 81 mg/dL
- TG ([…], time 14 day): 118.6 mg/dL
- TP ([…], time 14 day): 6.2 g/dL
- gamma-GTP ([…], time 14 day): 2 IU/L
- A/G ([…], time 28 day): 1.6
- ALP ([…], time 28 day): 681.8 IU/L
- ALT ([…], time 28 day): 32.2 IU/L
- AST ([…], time 28 day): 63.4 IU/L
- BUN ([…], time 28 day): 19 mg/dL
- CRE ([…], time 28 day): 0.4 mg/dL
- Ca ([…], time 28 day): 10.8 mg/dL
- Cl ([…], time 28 day): 106 meq/L
- DBIL ([…], time 28 day): 0.012 mg/dL
- GLC ([…], time 28 day): 189.8 mg/dL
- IP ([…], time 28 day): 6.3 mg/dL
- K ([…], time 28 day): 4.6 meq/L
- LDH ([…], time 28 day): 86.4 IU/L
- Na ([…], time 28 day): 140 meq/L
- PL ([…], time 28 day): 148.4 mg/dL
- RALB ([…], time 28 day): 4 g/dL
- TBIL ([…], time 28 day): 0.3 mg/dL
- TC ([…], time 28 day): 71 mg/dL
- TG ([…], time 28 day): 122.2 mg/dL
- TP ([…], time 28 day): 6.4 g/dL
- gamma-GTP ([…], time 28 day): 1.8 IU/L
